According to publication PMC5338256, “D-form KLKLLLLLKLK-NH2 peptide exerts higher antimicrobial properties than its L-form counterpart via an association with bacterial cell wall components” (Scientific Reports, 2017):
In brackets after ≈: the same amount, converted by molar mass. Non-standard residues stand in square brackets, D forms with d. Residues, ends and D or L forms follow the SMILES beside them.

Columns and labels:
S. aureus [1] = experiment: Assay for antimicrobial activity (10 min exposure, CFU); assay type: cell-based, Staphylococcus aureus (NBRC100910); conditions: for antimicrobial activity (CFU), D-form compared with L-form: 10 min at 37 °C
Description: (§1) S. aureus (NBRC100910), E. coli W3110 (NBRC12713), E. hirae (NBRC3181), C. albicans (NBRC1385), and S. Typhimurium 14028s (ATCC14028)[2] were used in this study. S. aureus, E. coli, and S. Typhimurium were grown at 37 °C with aeration in Muller-Hinton II medium (BD Biosciences). E. hirae was grown at 37 °C in LB medium (Nacalai Tesque, Inc.) containing 0.5% glucose (w/v). C. albicans was grown at room temperature with aeration in YM medium (BD Biosciences). All experiments were conducted using bacterial cells and C. albicans in the logarithmic-phase of growth.
Bacteria and C. albicans were suspended in growth medium. Peptides suspended in dimethyl sulfoxide were serially diluted in 10 mM phosphate buffer (pH 6.0) containing 130 mM sodium chloride, 0.2% bovine serum albumin as described previously. In order to examine the effects of bovine serum albumin on the assay, 10 mM phosphate buffer (pH 6.0) containing 130 mM sodium chloride, was used for the dilution of peptides. Peptide solution (500 μl) was added to 500 μl of bacteria suspensions and then the mixture was incubated at 37 °C for 10 min. In order to examine the effects of culture medium components on the assay, bacteria suspension was prepared with 10 mM phosphate buffer (pH 6.0) containing 130 mM sodium chloride. Alternatively, 500 μl of peptide solution was added to 500 μl of C. albicans suspensions and the mixture was incubated at room temperature for 10 min. The inhibitory effects of the bacterial components were analyzed by incubating 450 μl of S. aureus suspension with 500 μl of peptide solution plus 50 μl of inhibitor samples at 37 °C for 10 min. Then, the peptide/bacteria suspensions were diluted and plated onto LB agar, LB agar containing 0.5% glucose, or YM agar. After cultivation of the plates, colony forming units (CFU) in the peptide/bacteria suspension were calculated based on the average of triplicate plates.

[2] = Calcein leakage from liposomes; assay type: biochemical; conditions: 10 min at room temperature, pH 6.0, triplicate assays
Description: Liposomes were prepared as previously described with some modifications. S. aureus-mimetic liposomes[17][26] and mammalian-mimetic liposomes[27] were prepared by combining phospholipid mixtures (cardiolipin: L-α-phosphatidyl-DL-glycerol = 1:3 (mol/mol)) and 2-dioleoyl-sn-glycero-3-phosphocholine:1,2-dioleoyl-sn-glycero-3-phosphoethanolamine:Cholesterol = 4:2:3 (mol/mol/mol)), respectively. A 50 mM calcein solution was prepared by mixing 100 mg calcein with 3.1 ml of solution A (0.3 ml of 1 M Tris-HCl (pH 7.4), 0.9 ml of 5 M sodium hydroxide, and 13.8 ml of water). The liposomes were prepared by adding 1 ml of calcein solution to the dried lipid mixtures, followed by vortexing for 10 min at room temperature. The liposome solution (1 ml) was centrifuged at 3000 × g for 10 min, and the precipitate was resuspended in 1 ml of 20 mM Tris-HCl (pH 7.4) containing 150 mM sodium chloride. The centrifugation step was repeated two more times. Finally, the precipitate was suspended in 100 μl of 20 mM Tris-HCl (pH 7.4) containing 150 mM sodium chloride.
Liposome suspensions were prepared by diluting of 1 μl of liposomes into 40 ml of 10 mM phosphate buffer (pH6.0) containing 130 mM sodium chloride. Peptides were serially diluted in 10 mM phosphate buffer (pH 6.0) containing 130 mM sodium chloride and 1% dimethyl sulfoxide. […]

S. Typhimurium = experiment: Assay for antimicrobial activity (10 min exposure, CFU); assay type: cell-based, Salmonella enterica serovar Typhimurium 14028s; conditions: 10 min at 37 °C, triplicate plates
Description: as §1
(§2) Bacteria and C. albicans were suspended in growth medium. Peptides suspended in dimethyl sulfoxide were serially diluted in 10 mM phosphate buffer (pH 6.0) containing 130 mM sodium chloride, 0.2% bovine serum albumin as described previously. In order to examine the effects of bovine serum albumin on the assay, 10 mM phosphate buffer (pH 6.0) containing 130 mM sodium chloride, was used for the dilution of peptides. […] The inhibitory effects of the bacterial components were analyzed by incubating 450 μl of S. aureus suspension with 500 μl of peptide solution plus 50 μl of inhibitor samples at 37 °C for 10 min. […] After cultivation of the plates, colony forming units (CFU) in the peptide/bacteria suspension were calculated based on the average of triplicate plates.

S. aureus peptidoglycan = experiment: Peptidoglycan-binding assay; set-up: species or system Staphylococcus aureus; conditions: biotin-labeled peptides on immobilized peptidoglycan; 37 °C, 2 h; avidin-labeled peroxidase, absorbance 450 nm; triplicate assays
Description: Peptidoglycan-binding assays were performed as previously described with some modifications. Peptidoglycan from S. aureus (100 μg/ml) was suspended in 0.2% trifluoroacetic acid and sonicated twice for 10 sec at setting 1 using a Branson sonifier model S-150D. The peptidoglycan suspension (50 μl) was used to coat the wells of a flat bottom 96-well microplate (Thermo Fisher Scientific). The plate was incubated at room temperature until the water evaporated. The plate was placed at 60 °C for 1 h to dry out completely, and then blocked with 200 μl of 5 mg/ml bovine serum albumin in binding buffer (10 mM phosphate buffer (pH 6.0) containing 130 mM sodium chloride, 0.05% Tween 20, and 0.01% trifluoroacetic acid) at 37 °C for 2 h. The plate was washed four times with 200 μl of binding buffer. Biotin-labeled peptides in 100 μl of binding buffer containing 0.5% dimethyl sulfoxide were added to the wells and incubated at 37 °C for 2 h. Detection of biotin-labeled peptides was performed using Vectastain ABC reagent (Vector Laboratories) according to manufacturer’s instructions. The wells were washed four times with binding buffer, then 100 μl of avidin-labeled peroxidase was added to each well, and the plate was incubated at 37 °C for 1 h. The wells were washed again as described above. […] Absorbance was measured at 450 nm.

E. coli = experiment: Assay for antimicrobial activity (10 min exposure, CFU); assay type: cell-based, Escherichia coli W3110 (NBRC12713); conditions: 10 min at 37 °C, triplicate plates
Description: as §1, §2

S. aureus [3] = assay type: cell-based, Staphylococcus aureus (NBRC100910)
Description: as §1
(§3) Bacterial suspensions in Muller-Hinton II medium were adjusted to an optical density of 550 nm (OD550) = 0.0011. C. albicans suspensions in YM medium were adjusted to OD650 = 0.033. Peptides were serially diluted in 10 mM phosphate buffer (pH 6.0) containing 130 mM sodium chloride, 0.2% bovine serum albumin, and 2.56% dimethyl sulfoxide. The peptide solution (100 μl) was mixed with 100 μl of bacteria or C. albicans suspensions. Bacterial cultures were incubated for one day at 37 °C. C. albicans cultures were incubated for two days at room temperature. Cell growth was monitored optically and the MIC was determined.

E. hirae = experiment: Assay for antimicrobial activity (10 min exposure, CFU); assay type: cell-based, Enterococcus hirae (NBRC3181); conditions: 10 min at 37 °C, triplicate plates
Description: as §1, §2

C. albicans = assay type: cell-based, Candida albicans (NBRC1385)
Description: as §1, §3

With `CC(C)C[C@@H](NC(=O)[C@H](N)CCCCN)C(=O)N[C@H](CCCCN)C(=O)N[C@H](CC(C)C)C(=O)N[C@H](CC(C)C)C(=O)N[C@H](CC(C)C)C(=O)N[C@H](CC(C)C)C(=O)N[C@H](CC(C)C)C(=O)N[C@H](CCCCN)C(=O)N[C@H](CC(C)C)C(=O)N[C@H](CCCCN)C(N)=O` [D-form KLKLLLLLKLK-NH2] (H-[dK][dL][dK][dL][dL][dL][dL][dL][dK][dL][dK]-NH2; N-terminus assumed) the “antimicrobial activity relative to the standard assay condition” value (S. aureus [1]; 10 min, in the absence of culture medium and bovine serum albumin) was “lower”, the “antimicrobial activity (CFU), D-form compared with L-form” value (S. aureus [1]; in the absence of culture medium and/or bovine serum albumin) was “higher antimicrobial activity” and the “antimicrobial activity (CFU), D-form compared with L-form” value (S. aureus [1]; standard assay with culture medium and 0.2% BSA, triplicate plates) was “higher antimicrobial activity”. The “peptide concentration at which D-form and L-form displayed similar antimicrobial activity” value (S. aureus [1]; 10 min exposure) was 1.9 µg/mL, the “calcein release from liposomes” value ([2]; S. aureus-mimetic liposomes (cardiolipin:phosphatidylglycerol 1:3)) was “released calcein” and the “calcein release from liposomes” value ([2]; mammalian-mimetic liposomes (phosphatidylcholine:phosphatidylethanolamine:cholesterol 4:2:3)) was “neither D-form nor L-form KLKLLLLLKLK-NH2 was able to release calcein”. The “antimicrobial activity (CFU), D-form compared with L-form” value (S. Typhimurium) was “higher antimicrobial activity”, the “affinity for S. aureus peptidoglycan, D-form compared with L-form” value (S. aureus peptidoglycan) was “higher affinity” and the “antimicrobial activity (CFU), D-form compared with L-form” value (E. coli) was “higher antimicrobial activity”. For the same compound, the “fold by which the MIC of the D-form is lower than that of the L-form” value (S. aureus [3]; S. aureus) was 16 fold, the MIC (S. aureus [3]; pH 6) was 1 µg/mL (≈ 0.757 µM) and the “antimicrobial activity (CFU), D-form compared with L-form” value (E. hirae) was “higher antimicrobial activity”. It also gave an MIC (C. albicans) of 32 µg/mL (≈ 24.2 µM).
